# Results from ChEMBL document CHEMBL1268858, “Cytotoxic Hexacyclic Triterpene Acids from Euscaphis japonica” (J Nat Prod, 2010).
# Columns and labels:
# NCI-H460 [1] = assay: Cytotoxicity against human NCI-H460 cells at 10 uM after 48 hrs; assay type: functional
# MCF7 [2] = assay: Cytotoxicity against human MCF7 cells at 10 uM after 48 hrs; assay type: functional
# CCRF-CEM [3] = assay: Cytotoxicity against human CEM cells at 10 uM after 48 hrs; assay type: functional
# [4] = Cytotoxicity against human fibroblast cells at 10 uM after 48 hrs; assay type: cell-based
# HT-29 [5] = assay: Cytotoxicity against human HT-29 cells at 10 uM after 48 hrs; assay type: functional
# CCRF-CEM [6] = assay: Cytotoxicity against human CEM cells after 48 hrs; assay type: functional, cell-based
# NCI-H460 [7] = assay: Cytotoxicity against human NCI-H460 cells after 48 hrs; assay type: functional, cell-based; settings: NCI-H460, 48 h
# HT-29 [8] = assay: Cytotoxicity against human HT-29 cells after 48 hrs; assay type: functional, cell-based; settings: HT-29, 48 h
# MCF7 [9] = assay: Cytotoxicity against human MCF7 cells after 48 hrs; assay type: functional, cell-based; settings: MCF7, 48 h
Compound,Activity (NCI-H460 [1]) [%],Activity (MCF7 [2]) [%],Activity (CCRF-CEM [3]) [%],Activity [4] [%],Activity (HT-29 [5]) [%],IC50 (CCRF-CEM [6]) [µM],IC50 (NCI-H460 [7]) [µM],IC50 (HT-29 [8]) [µM],IC50 (MCF7 [9]) [µM]
C[C@@H]1CC[C@]2(C(=O)O)CC[C@]3(C)C(=CC[C@@H]4[C@@]5(C)C[C@H](O)[C@H](O)C(C)(C)[C@@H]5CC[C@]43C)[C@@H]2[C@]1(C)O,78,70,73,107,74,,,,
C[C@@H]1CC[C@]2(C(=O)O)CC[C@]3(C)C(=CC[C@@H]4[C@@]5(C)CC[C@H](O)[C@@](C)(C=O)[C@@H]5CC[C@]43C)[C@@H]2[C@]1(C)O,103,93,88,99,91,,,,
C[C@H]1[C@H](C)CC[C@]2(C(=O)O)CC[C@]3(C)C(=CC[C@@H]4[C@@]5(C)C[C@@H](O)[C@H](O)C(C)(C)[C@@H]5CC[C@]43C)[C@H]12 [COROSOLIC ACID],89,75,33,109,68,3.27,> 10,> 10,> 10
COc1cccc2c1C(=O)c1c(O)c3c(c(O)c1C2=O)C[C@@](O)(C(=O)CO)C[C@@H]3O[C@H]1C[C@H](N)[C@H](O)[C@H](C)O1 [DOXORUBICIN],,,,,,3.14,6.06,6.4,
C[C@@H]1CC[C@]2(C(=O)O)CC[C@]34C[C@]3(C=C[C@@H]3[C@@]5(C)CC[C@H](O)C(C)(C)[C@@H]5CC[C@]34C)[C@@H]2[C@]1(C)O [EUSCAPHIC ACID A],62,85,83,100,87,,,,
C[C@@H]1CC[C@]2(C(=O)O)CC[C@]34C[C@]3(C=C[C@@H]3[C@@]5(C)CC[C@H](O)[C@@](C)(CO)[C@@H]5CC[C@]34C)[C@@H]2[C@]1(C)O [EUSCAPHIC ACID B],99,84,80,109,93,,,,
C[C@@H]1CC[C@]2(C(=O)O)CC[C@]34C[C@]3(C=C[C@@H]3[C@@]5(C)C[C@@H](O)[C@@H](O)C(C)(C)[C@@H]5CC[C@]34C)[C@@H]2[C@]1(C)O [EUSCAPHIC ACID C],6,10,19,119,1,65.3,2.54,14.3,15.7
C[C@@H]1CC[C@]2(C(=O)O)CC[C@]34C[C@]3(C=C[C@@H]3[C@@]5(C)C[C@@H](O)[C@H](O)C(C)(C)[C@@H]5CC[C@]34C)[C@@H]2[C@]1(C)O [EUSCAPHIC ACID D],24,41,55,111,13,8.99,13.3,34.8,3.61
C[C@H]1[C@H](C)CC[C@]2(C(=O)O)CC[C@]34C[C@]3(C=C[C@@H]3[C@@]5(C)C[C@@H](O)[C@H](O)C(C)(C)[C@@H]5CC[C@]34C)[C@H]12 [EUSCAPHIC ACID E],91,90,87,110,86,,,,
C=C1[C@H](C)CC[C@]2(C(=O)O)CC[C@]34C[C@]3(C=C[C@@H]3[C@@]5(C)C[C@@H](O)[C@H](O)C(C)(C)[C@@H]5CC[C@]34C)[C@H]12 [EUSCAPHIC ACID F],81,76,86,115,87,,,,
C[C@@H]1CC[C@]2(C(=O)O)CC[C@]3(C)C(=CC[C@@H]4[C@@]5(C)C[C@@H](O)[C@@H](O)C(C)(C)[C@@H]5CC[C@]43C)[C@@H]2[C@]1(C)O [EUSCAPHIC ACID],104,85,89,95,85,,,,
C[C@@H]1CC[C@]2(C(=O)O)CC[C@]3(C)C(=CC[C@@H]4[C@@]5(C)CC[C@H](O)C(C)(C)[C@@H]5CC[C@]43C)[C@@H]2[C@]1(C)O [POMOLIC ACID],82,79,92,93,91,,,,
C[C@@H]1CC[C@]2(C(=O)O)CC[C@]3(C)C(=CC[C@@H]4[C@@]5(C)CC[C@H](O)[C@@](C)(CO)[C@@H]5CC[C@]43C)[C@@H]2[C@]1(C)O [ROTUNDIC ACID],85,78,106,92,101,,,,
C[C@@H]1CC[C@]2(C(=O)O)CC[C@]3(C)C(=CC[C@@H]4[C@@]5(C)CC[C@H](O)[C@](C)(CO)[C@@H]5CC[C@]43C)[C@@H]2[C@]1(C)O [ROTUNGENIC ACID],106,98,97,99,91,,,,
C[C@@H]1CC[C@]2(C(=O)O)CC[C@]3(C)C(=CC[C@@H]4[C@@]5(C)C[C@@H](O)[C@H](O)C(C)(C)[C@@H]5CC[C@]43C)[C@@H]2[C@]1(C)O [TOMENTIC ACID],88,85,93,114,86,,,,
